Test results reported in patent publication US20130109698A1, “Small Molecule Inhibitors of Functions of the HIV-1 Matrix Protein” (priority 2010, published 2013).

Tests used:
[1] = target: T1, HIV-1 MA (Human immunodeficiency virus type 1 group M subtype B, UniProt P03348); assay: Surface plasmon resonance direct binding to immobilized HIV-1 MA; settings: for direct interaction with sensor chip-immobilized HIV-1 MA: CM7 sensor chip, 10 μM (FIG. 14)
T1 construct: His6 (N, cleaved yes); SUMO (N, cleaved yes); made in house; host or cells: Escherichia coli BL21 (DE3) Codon+-RIL
Source text: An assay was devised to monitor the interactions of small-molecule compounds to HIV-1 MA using SPR. In this assay, HIV-1LA1 MA was immobilized to the flow cells of a CM5 sensor chip to high density (˜1.3 kRU) or a CM7 sensor chip to high density (19 kRU) using standard amine coupling. A reference surface was similarly created by immobilizing the SUMO protein or a nonspecific antibody ARC4033 (antimouse/rat interferon-γ: BioSource). In small-molecule assays, the buffering system used is important due to the low responses obtained in binding assays. […] A stock solution of the MTI compounds was prepared by dissolving in 100% dimethyl sulfoxide (DMSO) to a final concentration of 10 mM.
To prepare the sample for analysis, 30 μL of the stock solution of the compound of the invention was added to sample preparation buffer (PBS, pH 7.2) to a final volume of 1 mL and mixed thoroughly. Preparation of analyte in this manner ensured that the concentration of DMSO was matched with that of running buffer with 3% DMSO. Lower concentrations of each compound were then prepared by two-fold serial dilutions into running buffer (PBS, 3% DMSO, pH 7.2). These compound dilutions were then injected over the control and MA surfaces at a flow rate of 30 μL min^−, for a 4-min association phase, followed by a 5-min dissociation phase.
In one aspect, owing to the relatively fast dissociation rates of these compounds, regeneration of these surfaces was accomplished by extensive washing of the system followed by a 5 min wait phase, a second wash, and a final 15 min wait phase. To secure complete regeneration, a buffer injection (5 min^on/5 min^off) was performed before each subsequent injection of compound.
Response to a small-molecule compound (NBD-556) specific for HIV-1 gp120 was also monitored to ensure specificity.
Data analysis was performed using BIAEvaluation 4.0 software (GE Healthcare). The responses of a buffer injection and responses from the ARC4033-immobilized reference cell were subtracted to account for nonspecific binding. The average maximum response was generated from a minimum of 3 data sets and was used to define the standard deviation for each compound binding to the HIV-1 MA protein.
The MTI compounds are predicted to interact with HIV-1 MA and thereby disrupt its functioning during the HIV-1 replication cycle. However, it is possible that a compound might exert its action via another mechanism not involving MA. Therefore, studies were performed to determine that the MTI compounds are directed against HIV-1 MA. The direct interaction of compounds CMPD-18, CMPD-17, CMPD-7, and CMPD-14 with HIV-1 MA was assayed using surface plasmon resonance interaction analyses. Wild-type HIV-1 MA protein was overproduced in E. coli using the pETHSUL expression system and purified using successive IMAC strategies, followed by an ion exchange chromatographic step as outlined in Materials and Methods. FIG. 6 illustrates the purification profile of HIV-1 MA. The purified MA was then immobilized onto the surface of a high-capacity CM7 sensor chip. Similarly, the monoclonal antibody ARC4033 (antimouse/rat interferon-γ; BioSource, Invitrogen, Carlsbad, Calif.) was immobilized on a CM7 sensor chip and was used to correct for background binding and instrument and buffer artifacts.

[2] = test system: SIV MAC251; assay: Antiviral efficacy in PBMCs, reverse transcriptase activity; type: cell-based; settings: for IC50 / IC90: Simian immunodeficiency virus, PBMC
[3] = Compound cytotoxicity in PBMCs (MTS); type: cell-based, human; settings: human; Table 4 study, PBMCs; read-out: TC50
Procedure: (§1) HIV human peripheral blood mononuclear cell (PBMC) assays were performed as described previously (Lanier et al., 2010, Antimicrob Agents Chemother 54:2901-2909 and Ptak et al., 2008, Antimicrob Agents Chemother 52:1302-1317). Briefly, fresh PBMCs, seronegative for HIV and hepatitis B virus (HBV), were isolated from blood samples of the screened donors (Biological Specialty Corporation, Colmar, Pa.) by using lymphocyte separation medium (LSM; density, 1.078±0.002 g/ml; Cellgro; Mediatech, Inc.) by following the manufacturer's instructions. Cells were stimulated by incubation in 4 μg/mL phytohemagglutinin (PHA; Sigma) for 48 to 72 h. Mitogenic stimulation was maintained by the addition of 20 U/mL recombinant human interleukin-2 (rhIL-2; R&D Systems, Inc.) to the culture medium. PHA-stimulated PBMCs from at least two donors were pooled, diluted in fresh medium, and added to 96-well plates at 5×10^4 cells/well. Cells were infected (final multiplicity of infection [MOI] of ≅0.1) in the presence of nine different concentrations of test compounds (triplicate wells/concentration) and incubated for 7 days. To determine the level of virus inhibition, cell-free supernatant samples were collected for analysis of reverse transcriptase activity (Buckheit et al., 1991, AIDS Res Hum Retroviruses 7:295-302). Following removal of supernatant samples, compound cytotoxicity was measured by the addition of 3-(4,5-dimethylthiazol-2-yl)-5-(3-carboxymethoxy-phenyl)-2-(4-sulfophenyl)-2H-tetrazolium (MTS; CellTiter 96 reagent; Promega) by following the manufacturer's instructions.

[4] = test system: herpes simplex type 1; assay: Antiviral spectrum: HSV-1 in Vero cells; type: cell-based; settings: herpes simplex type 1, up to 100 μM
Procedure: The effects of the compounds on HSV-1 (dsDNA; strain HF evaluated in Vero cells; virus and cells obtained from the American Type Culture Collection [ATCC]) were assessed as described previously (Ptak et al., 2008, Antimicrob Agents Chemother 52:1302-1317).

[5] = test system: respiratory syncytial virus; assay: Antiviral spectrum: cytopathic effect assay; type: cell-based
[6] = test system: yellow fever; type: cell-based; settings: up to 100 μM
[7] = test system: Vaccinia; type: cell-based; settings: up to 100 μM
[8] = test system: luciferase-reporter HIV-1 NL4-3 pseudotyped with HxBc2 envelope produced in 293T cells; assay: microbe, parasite or virus in culture
[9] = test system: HIV-1 Ba-L; assay: Antiviral activity of additional compounds (Tables 6 and 7); type: cell-based
Procedure: as §1

[10] = test system: HIV-1 NL4-3; assay: as above; type: cell-based
Procedure: as §1

[11] = test system: PBMCs; assay: Compound cytotoxicity in PBMCs (MTS); type: cell-based, human; settings: Tables 6 and 7 study; read-out: TC50 (the source's name)
Procedure: as §1

[12] = test system: HIV-1 IIIB; assay: Infection of Sup-T1 cells by HIV-1 IIIB, p24 ELISA; settings: 50 μM, three days
[13] = Human immunodeficiency virus 1, BAL
[14] = Human immunodeficiency virus 1, NL43

SMILES | direct interaction with sensor chip-immobilized HIV-1 MA [1] | Antiviral index (TC50/IC50) [2] | IC50 [2] | IC90 [2] | CC50 at 7 days [3] | inhibitory effects on replication [4] | inhibitory effects on replication [5] | inhibitory effects on replication [6] | inhibitory effects on replication [7] | IC50 [8] | Antiviral index (TC50/IC50) [9] | IC50 [9, 13] | IC90 [9, 13] | Antiviral index (TC50/IC50) [10] | IC50 [10, 14] | IC90 [10, 14] | CC50 [11] | interaction with HIV-1 MA versus SUMO ([1]; 25.1 μM (FIG. 11)) | HIV-1 replication (p24), in words [12]
Cc1ccc(NC(=O)CN2CCN(Cc3nc(-c4ccc(F)cc4)no3)CC2)cc1 [CMPD-7, 2-(4-((3-(4-fluorophenyl)-1,2,4-oxadiazol-5-yl)methyl)piperazin-1-yl)-N-(p-tolyl)acetamide] | directly interacted | > 10.55 | 9.48 µM | 31 µM | > 100 µM | no inhibitory effects | no inhibitory effects | no inhibitory effects | no inhibitory effects | 28 µM | – | – | – | – | – | – | – | – | –
O=C(CNC(=O)COc1ccccc1)NCc1ccc(C(=O)N2CCCCC2)cc1 [CMPD-14, N-(2-oxo-2-((4-(piperidine-1-carbonyl)benzyl)amino)ethyl)-2-phenoxyacetamide] | directly interacted | > 5.85 | 17.1 µM | 44.2 µM | > 100 µM | no inhibitory effects | no inhibitory effects | no inhibitory effects | no inhibitory effects | 95 µM | > 3.13 | 32 µM | > 100 µM | > 2.53 | 39.6 µM | > 100 µM | > 100 µM | – | –
CCOc1ccc(NC(=O)Cc2cn3ccsc3n2)cc1S(=O)(=O)N1CCCCC1 [CMPD-18, N-(4-ethoxy-3-(piperidin-1-ylsulfonyl)phenyl)-2-(imidazo[2,1-b]thiazol-6-yl)acetamide] | directly interacted | 1.06 | 87.1 µM | > 100 µM | 92.3 µM | no inhibitory effects | no inhibitory effects | no inhibitory effects | no inhibitory effects | > 100 µM | – | – | – | – | – | – | – | specific interaction | inhibited
